# Values joined by “and” are separate entries in the source; they are usually repeats but may differ in a detail not shown here. Identical values can stand only once. Square brackets hold non-standard residues; d marks the D form. Peptide text beside a SMILES is read from it. * marks the point of attachment. Dolaproine = CO[C@@H]([C@@H]1CCCN1)[C@@H](C)C(=O)O; Dil = CC[C@H](C)[C@H](NC)[C@@H](CC(=O)O)OC; X1 = C[C@@H](N*)[C@@H](O)c1ccccc1; NMeV = CN[C@H](C(=O)O)C(C)C
# Experiments:
# [1] = test system: LNCaP (human prostate cancer cells); assay: Inhibition of cell line proliferation, CCK8; assay type: cell-based; conditions: LNCaP; for IC50: 68-72 hours, CCK8
# [2] = test system: 22RV1 (human prostate cancer cells); assay: Inhibition of cell line proliferation, CCK8; assay type: cell-based; conditions: for IC50: 22RV1, 68-72 hours, CCK8
# From the text: Since different cells have different sensitivity to a cell proliferation inhibitory toxicity of the payload in a ligand conjugate, the quantitative analysis may be interfered occasionally. A series of cell lines with known expression levels of receptors of different ligands were selected and tested for the response to inhibitory effects of the cell proliferation of a ligand conjugate and a single payload. The IC50 ratio of a single payload to that of a ligand conjugate in same cell line were taken to remove such interference.
# (§1) Experimental operations: LNCaP and 22RV1 cells were prepared in advance, counted, and plated in 96-well cell culture plates at a cell density of 4×10^4 cells/ml and 2.0×10^4 cells/ml, respectively (100 μl/well); negative control and blank control wells were set on each plate. After adherent cell culture overnight, the diluted samples to be tested were added at 50 μl/well. The plates were placed in an incubator at 37° C., 5% CO2 and cultured for 68-72 hours. To each well, 15 μl (10% of the liquid volume in a well) of a color developing solution from CCK8 was added; and the plates were incubated at 37° C. for 45-70 minutes and each plate was read at 450 nm on a microplate reader. The data was edited using SoftMax Pro and a 4-P fitting curve was plotted.
# [3] = test system: CFPAC-1 (human pancreatic cancer cells); assay: Inhibition of cell line proliferation, CCK8; assay type: cell-based; conditions: for IC50: CFPAC-1, 68-72 hours, CCK8
# [4] = test system: PANC-1 (human pancreatic cancer cells); assay: Inhibition of cell line proliferation, CCK8; assay type: cell-based; conditions: for IC50: PANC-1, 68-72 hours, CCK8
# Description: as §1, with “PANC-1” for “LNCaP”, “CFPAC-1” for “22RV1”, “cells/ml” for “cells/ml and 2.0×10^4 cells/ml, respectively”
# (§2) Experimental operations: LNCaP, SK-BR-3, NCI-H226, CFPAC-1 and PANC-1 cells were prepared in advance and counted; with a culture medium (IMDM+10% FBS+1× L-Glutamine+1×P/S), the cells LNCaP, SK-BR-3 and CFPAC-1 were diluted to 4×10^4 cells/ml, NCI-H226 was diluted to 2.0×10^4 cells/ml and PANC-1 was diluted to 3.0×10^4 cells/ml; the diluted cell solution was plated in 96-well plates at 100 μl/well; and negative control and blank control wells were set on each plate. After adherent cell culture overnight, the diluted samples to be tested were added at 50 μl/well. The plates were placed in an incubator at 37° C., 5% CO2 and cultured for 68-72 hours. To each well, 15 μl (10% of the liquid volume in a well) of a color developing solution from CCK8 was added; and the plates were incubated at 37° C. for 45-70 minutes and each plate was read at 450 nm on a microplate reader. The data was edited using SoftMax Pro and a 4-P fitting curve was plotted.
# as §2, with “Operations:” for “operations:”, “MDA-MB-468,” for “SK-BR-3, NCI-H226,”, “MDA-MB-468” for “SK-BR-3”, “cells/ml,” for “cells/ml, NCI-H226 was diluted to 2.0×10^4 cells/ml”
# [5] = Body weight and clinical observation in the LU1206 study; conditions: 0.375 mg/kg on day 1, 8, 15
# Description: BALB/c nude mice bore tumors subcutaneously and, when the tumor volume reached about 150 mm^3, were grouped into: low-dose, medium-dose and high-dose test sample groups, a small molecule MMAE control group, a targeting polypeptide 20BK-SM09 control group, and a blank control group (a total of 6 groups, and 8 mice per group); the mice were administered on day 1, day 8 and day 15 after the grouping; and the observation was continued for 14 days after the last administration.
SMILES,IC50 ratio (MMAE/conjugate) [1],IC50 [1],IC50 ratio (MMAE/conjugate) ([2]; 22RV1),IC50 [2] [nM],IC50 (MMAE)/IC50 (conjugate) ([3]; CFPAC-1),IC50 [3] [nM],IC50 (MMAE)/IC50 (conjugate) ([4]; PANC-1),IC50 [4] [nM],Weight [5] [g]
CC[C@H](C)[C@@H]([C@@H](CC(=O)N1CCC[C@H]1[C@H](OC)[C@@H](C)C(=O)N[C@H](C)[C@@H](O)c1ccccc1)OC)N(C)C(=O)[C@@H](NC(=O)[C@H](C(C)C)N(C)C(=O)OCc1ccc(NC(=O)C(CCCNC(N)=O)NC(=O)[C@@H](NC(=O)CCCCCN2C(=O)CC(SC[C@H](NC(=O)[C@H](CCCCN)NC(=O)[C@H](CC(=O)O)NC(=O)[C@H](CC(=O)O)NC(=O)Cc3ccc(CNC(=O)NCCCC[C@H](NC(=O)N[C@@H](CCC(=O)O)C(=O)O)C(=O)O)cc3)C(=O)N[C@@H](CCCCNC(=O)CC[C@H](NC(=O)c3ccc(NCc4cnc5[nH]c(N)nc(=O)c5n4)cc3)C(=O)O)C(N)=O)C2=O)C(C)C)cc1)C(C)C (stereo partly shown) [CB-20BK],0.0267,95.8 nM,0.013,502,0.027,557,0.020,126,
"CC[C@H](C)[C@@H]([C@@H](CC(=O)N1CCC[C@H]1[C@H](OC)[C@@H](C)C(=O)N[C@H](C)[C@@H](O)c1ccccc1)OC)N(C)C(=O)[C@@H](NC(=O)[C@@H](NC)C(C)C)C(C)C [MMAE, monomethyl auristatin E] (H-[NMeV]V[Dil][Dolaproine]-X1)",,2.55 nM and 3 nM,,6.48,,15,,2,23.6

# From patent publication US20220175761A1, “BI-LIGAND DRUG CONJUGATE AND USE THEREOF” (COHERENT BIOPHARMA (SUZHOU), LIMITED, priority 2019, published 2022)
